Values after ≈ are worked out from the molar mass of the structure shown. Values joined by “and” are separate entries in the source; they are usually repeats but may differ in a detail not shown here. Identical values can stand only once. Like-named read-outs stand apart in the source and are kept apart here.
Legend:
[1] = test system: Meloidogyne incognita; assay: Indoor toxicity test against Meloidogyne incognita second-instar larvae (J2)
Procedure: Materials: the tested nematodes were collected from three different areas, namely cucumber crops in Dawenkou Town, Tai'an City, Shandong Province, and were all identified as southern root-knot nematodes (Meloidogyne incognita). The diseased roots were washed, cut into small sections of 0.5 cm to 1 cm, rinsed in 1% NaClO solution for about 30 s to 60 s, and rinsed with 200-mesh and 500-mesh sieves to collect nematode eggs for later use. The collected eggs were incubated at 25° C. using the Bayman funnel method and the second-instar larvae were collected 1 time per 24 h to ensure that the second-instar larvae selected each time were fresh and of consistent vitality.
The agent was 98% sulfoxamyl technical, and the comparison agents were 96% oxamyl technical and 87% fosthiazate technical.
The preparation for the agent was in accordance with the provisions for preparation of the liquid medicine in the Agricultural Industry Standard of the People's Republic of China NYT 1833.1-2009 “Guideline for laboratory bioassay of pesticides”, as shown in Table 6.
Methods: according to the experimental plan, the test agent was diluted to different mass concentrations, and 0.5 mL of the agent solution and 0.5 mL of the nematode solution (containing about 100 nematodes) were added into a 24-well cell culture plate. The treatment with each concentration of the agent was repeated 4 times, and auxiliary agent control and blank control were also conducted. […]

[2] = test system: SD rats; assay: Acute oral toxicity test, single oral fixed-dose procedure; assay type: in vivo; conditions: single oral dose 500 mg/kg
Procedure: Materials: the test agent 98% sulfoxamyl technical, batch number 20230708-1, was provided by Ningxia Hugerise Chemical Co., Ltd. Experimental animals: SPF-grade SD rats, half male and half female, weighing 180 g to 220 g, were provided by Jinan Pengyue Experimental Animal Breeding Co., Ltd., license number SCXK (Lu) 20190003. Rearing environment: the rats were housed in an SPF-grade animal room with free access to water and food, a temperature of 20° C. to 25° C., a humidity of 40% to 60%, and a 12 h/12 h light cycle. Feed: conventional pellet feed was provided by Jinan Pengyue Experimental Animal Breeding Co., Ltd.
The test was conducted in accordance with “Toxicological test methods of pesticides for registration, GB15670.5-2017”, “Acute toxicity test, GB15193.3-2003” and relevant acute toxicity research data.
Methods: a single oral fixed-dose procedure was conducted to preliminarily explore the toxic dose range of sulfoxamyl. LD50 and confidence limits were calculated by using the probability unit method (Bliss method). SD rats were randomly divided into 5 groups, 10 rats in each group, half of them were male and half were female. […] The common ratio value among each dose group was 0.75. After a single oral administration, the mortality rate of the experimental animals was recorded within 24 h and 14 days after administration, while the general condition of the animals was observed, and the food intake and body weight changes were recorded.

[3] = test system: Meloidogyne incognita eggs; assay: Inhibitory effect on hatching of Meloidogyne incognita eggs; assay type: in vivo; conditions: 7 d
[4] = Meloidogyne incognita, 24 h, 50 mg/L
[5] = Meloidogyne incognita, 24 h, 100 mg/L
[6] = Meloidogyne incognita, 24 h, read-out: Corrected mortality, 50 mg/L, 24 h
[7] = Meloidogyne incognita, 24 h, read-out: Corrected mortality, 100 mg/L, 24 h
[8] = Meloidogyne incognita, 168 h, egg hatching

CCOP(=O)(SC(C)CC)N1CCSC1=O (stereo not shown) [Fosthiazate, fosthiazate]
Corrected mortality ([1]; 3.125 mg/L, 24 h): 17.51% and 18.63% and 12.52% | Death count ([1]; 3.125 mg/L, 24 h): 24 and 38 and 26 and 20 | Mortality ([1]; 3.125 mg/L, 24 h): 23.90% and 25.74% and 16.13% | Corrected mortality ([1]; 6.25 mg/L, 24 h): 33.03% and 29.63% and 42.23% | Death count ([1]; 6.25 mg/L, 24 h): 36 and 60 and 39 and 58 | Mortality ([1]; 6.25 mg/L, 24 h): 38.22% and 35.78% and 44.62% | Corrected mortality ([1]; 12.5 mg/L, 24 h): 57.70% and 46.22% and 41.17% and 62.23% | Death count ([1]; 12.5 mg/L, 24 h): 80 and 64 and 69 and 74 | Mortality ([1]; 12.5 mg/L, 24 h): 50.39% and 46.31% and 63.79% | Corrected mortality ([1]; 25 mg/L, 24 h): 74.92% and 67.46% and 64.47% | Death count ([1]; 25 mg/L, 24 h): 68 and 93 and 116 and 91 | Mortality ([1]; 25 mg/L, 24 h): 76.86% and 70.30% and 65.94% | Corrected mortality ([1]; 50 mg/L, 24 h): 79.38% and 77.71% and 74.49% | Death count ([1]; 50 mg/L, 24 h): 84 and 132 and 94 and 105 | Mortality ([1]; 50 mg/L, 24 h): 80.98% and 79.66% and 75.54% | Corrected mortality ([1]; 100 mg/L, 24 h): 75.25% and 86.39% and 79.87% | Death count ([1]; 100 mg/L, 24 h): 117 and 98 and 141 and 92 | Mortality ([1]; 100 mg/L, 24 h): 77.17% and 87.58% and 80.70% | LC90 ([1]; 24 h): 146.50 µg/mL (≈ 517 µM) | LC50 ([1]; Meloidogyne incognita, 24 h): 14.6 µg/mL (≈ 51.4 µM) | mortality at 3.125 µg/mL ([1]; Meloidogyne incognita, 24 h, 3.125 mg/L): 16.6% | mortality at 6.25 µg/mL ([1]; Meloidogyne incognita, 24 h, 6.25 mg/L): 28.6% | mortality at 12.5 µg/mL ([1]; Meloidogyne incognita, 24 h, 12.5 mg/L): 59.7% | mortality at 25 µg/mL ([1]; Meloidogyne incognita, 24 h, 25 mg/L): 64.2% | mortality at 50 µg/mL [1, 4]: 82.3% | mortality at 100 µg/mL [1, 5]: 80.1% | mortality at 3.125 µg/mL ([1]; Meloidogyne incognita, 24 h, read-out: Corrected mortality, 3.125 mg/L, 24 h): 12.4% | mortality at 6.25 µg/mL ([1]; Meloidogyne incognita, 24 h, read-out: Corrected mortality, 6.25 mg/L, 24 h): 25% | mortality at 25 µg/mL ([1]; Meloidogyne incognita, 24 h, read-out: Corrected mortality, 25 mg/L, 24 h): 62.4% | mortality at 50 µg/mL [1, 6]: 81.5% | mortality at 100 µg/mL [1, 7]: 79.2%

CNC(=O)O/N=C(\SC)C(=O)N(C)C [Oxamyl, N,N-dimethyl-2-[[[(methylamino)carbonyl]oxy]imino]-2-(methylthio)acetamide]
Death count [2]: 6/6 | Main clinical symptom [2]: All rats died within 5 min | Corrected mortality ([1]; 25 mg/L, 24 h): 6.89% and 2.76% and 3.40% and 3.65% | Mortality ([1]; 25 mg/L, 24 h): 8.04% and 3.96% and 4.59% and 4.84% | Corrected mortality ([1]; 25 mg/L, 48 h): 12.13% and 16.63% and 6.92% and 6.73% | Death count ([1]; 25 mg/L, 48 h): 15 and 18 and 9 and 10 | Mortality ([1]; 25 mg/L, 48 h): 13.39% and 17.82% and 8.26% and 8.06% | Corrected mortality ([1]; 25 mg/L, 72 h): 23.34% and 15.88% and 15.37% | Death count ([1]; 25 mg/L, 72 h): 20 and 25 and 19 and 21 | Mortality ([1]; 25 mg/L, 72 h): 24.75% and 17.43% and 16.94% | Corrected mortality ([1]; 50 mg/L, 24 h): 29.73% and 26.88% and 16.90% | Mortality ([1]; 50 mg/L, 24 h): 30.60% and 27.78% and 17.92% | Corrected mortality ([1]; 50 mg/L, 48 h): 44.73% and 39.88% and 31.09% | Mortality ([1]; 50 mg/L, 48 h): 45.52% and 40.74% and 32.08% | Corrected mortality ([1]; 50 mg/L, 72 h): 55.90% and 59.44% and 45.22% | Death count ([1]; 50 mg/L, 72 h): 41 and 76 and 65 and 49 | Mortality ([1]; 50 mg/L, 72 h): 56.72% and 60.19% and 46.23% | Corrected mortality ([1]; 100 mg/L, 24 h): 48.91% and 58.66% and 60.23% | Death count ([1]; 100 mg/L, 24 h): 74 and 54 and 71 and 68 | Mortality ([1]; 100 mg/L, 24 h): 49.54% and 59.17% and 60.71% | Corrected mortality ([1]; 100 mg/L, 48 h): 76.73% and 76.33% and 80.98% | Death count ([1]; 100 mg/L, 48 h): 90 and 84 and 92 and 91 | Mortality ([1]; 100 mg/L, 48 h): 77.06% and 76.67% and 81.25% | Corrected mortality ([1]; 100 mg/L, 72 h): 75.93% and 81.31% and 83.87% and 97.27% | Death count ([1]; 100 mg/L, 72 h): 97 and 89 and 101 and 109 | Mortality ([1]; 100 mg/L, 72 h): 76.38% and 81.65% and 84.17% and 97.32% | Corrected mortality ([1]; 200 mg/L, 24 h): 69.90% and 86.37% and 84.57% and 94.67% | Death count ([1]; 200 mg/L, 24 h): 78 and 90 and 89 | Mortality ([1]; 200 mg/L, 24 h): 70.27% and 86.54% and 84.76% and 94.74% | Corrected mortality ([1]; 200 mg/L, 48 h): 90.24% and 92.27% and 97.86% | Death count ([1]; 200 mg/L, 48 h): 104 and 94 and 97 and 93 | Mortality ([1]; 200 mg/L, 48 h): 90.38% and 92.38% and 97.89% | Corrected mortality ([1]; 200 mg/L, 72 h): 94.12% and 94.18% and 98.93% | Death count ([1]; 200 mg/L, 72 h): 108 and 98 and 99 and 94 | Mortality ([1]; 200 mg/L, 72 h): 94.23% and 94.29% and 98.95% | Death count ([1]; 400 mg/L, 24 h): 99 and 101 and 117 and 112 | Death count ([1]; 400 mg/L, 48 h): 101 and 108 and 119 and 117 | Death count ([1]; 400 mg/L, 72 h): 103 and 110 and 120 and 118 | LC90 ([1]; 24 h): 273.89 µg/mL (≈ 1250 µM) | LC90 ([1]; 48 h): 181.92 µg/mL (≈ 830 µM) | LC90 ([1]; 72 h): 131.82 µg/mL (≈ 601 µM) | LC50 ([1]; Meloidogyne incognita, 24 h): 94.8 µg/mL (≈ 432 µM) | mortality at 50 µg/mL [1, 4]: 23.8% | mortality at 100 µg/mL [1, 5]: 58.3% | mortality at 400 µg/mL ([1]; Meloidogyne incognita, 24 h, 400 mg/L): 96.1% | mortality at 50 µg/mL [1, 6]: 22.8% | mortality at 100 µg/mL [1, 7]: 57.8% | mortality at 400 µg/mL ([1]; Meloidogyne incognita, 24 h, read-out: Corrected mortality, 400 mg/L, 24 h): 96.1% | LC50 ([1]; Meloidogyne incognita, 48 h): 64.4 µg/mL (≈ 294 µM) | mortality at 50 µg/mL ([1]; Meloidogyne incognita, 48 h, 50 mg/L): 29.7% | mortality at 100 µg/mL ([1]; Meloidogyne incognita, 48 h, 100 mg/L): 70.9% | mortality at 200 µg/mL ([1]; Meloidogyne incognita, 48 h, 200 mg/L): 93.7% | mortality at 400 µg/mL ([1]; Meloidogyne incognita, 48 h, 400 mg/L): 98.1% | mortality at 50 µg/mL ([1]; Meloidogyne incognita, 48 h, read-out: Corrected mortality, 50 mg/L, 48 h): 28.7% | mortality at 100 µg/mL ([1]; Meloidogyne incognita, 48 h, read-out: Corrected mortality, 100 mg/L, 48 h): 70.4% | mortality at 200 µg/mL ([1]; Meloidogyne incognita, 48 h, read-out: Corrected mortality, 200 mg/L, 48 h): 93.6% | mortality at 400 µg/mL ([1]; Meloidogyne incognita, 48 h, read-out: Corrected mortality, 400 mg/L, 48 h): 98% | LC50 ([1]; Meloidogyne incognita, 72 h): 49.6 µg/mL (≈ 226 µM) | mortality at 25 µg/mL ([1]; Meloidogyne incognita, 72 h, 25 mg/L): 17.9% | mortality at 50 µg/mL ([1]; Meloidogyne incognita, 72 h, 50 mg/L): 40.6% | mortality at 200 µg/mL ([1]; Meloidogyne incognita, 72 h, 200 mg/L): 97.3% | mortality at 400 µg/mL ([1]; Meloidogyne incognita, 72 h, 400 mg/L): 100% | mortality at 25 µg/mL ([1]; Meloidogyne incognita, 72 h, read-out: Corrected mortality, 25 mg/L, 72 h): 16.3% | mortality at 50 µg/mL ([1]; Meloidogyne incognita, 72 h, read-out: Corrected mortality, 50 mg/L, 72 h): 39.5% | mortality at 200 µg/mL ([1]; Meloidogyne incognita, 72 h, read-out: Corrected mortality, 200 mg/L, 72 h): 97.2% | mortality at 400 µg/mL ([1]; Meloidogyne incognita, 72 h, read-out: Corrected mortality, 400 mg/L, 72 h): 100% | Number of hatched eggs/7 d ([3]; 25 mg/L): 81 and 92 and 90 | Number of unhatched eggs/7 d ([3]; 25 mg/L): 47 and 36 and 42 | Number of hatched eggs/7 d ([3]; 50 mg/L): 83 and 86 and 78 | Number of unhatched eggs/7 d ([3]; 50 mg/L): 53 and 52 | Number of hatched eggs/7 d ([3]; 100 mg/L): 62 and 72 and 71 | Number of unhatched eggs/7 d ([3]; 100 mg/L): 68 and 60 and 58 | Number of hatched eggs/7 d ([3]; 200 mg/L): 26 and 20 and 23 | Number of unhatched eggs/7 d ([3]; 200 mg/L): 97 and 101 and 103 | Number of hatched eggs/7 d ([3]; 400 mg/L): 12 and 15 and 11 | Number of unhatched eggs/7 d ([3]; 400 mg/L): 113 and 117 and 121 | IC50 [3, 8]: 91.6 µg/mL (≈ 418 µM) | IC90 [3, 8]: 480 µg/mL (≈ 2190 µM)

— patent US20250221413A1, “Use and Preparation Method of Sulfoxamyl, and Oxidation System” (priority 2023, published 2025)
